Measured values published in patent US20230263822A1, “MODULATION OF FACTOR 11 EXPRESSION” (Ionis Pharmaceuticals, Inc., priority 2008, published 2023).
pIC50: −log10 of the molar value. Strand notation (5' to 3'): a small letter for the sugar, then the base; units joined by * are phosphorothioate-linked, units joined directly phosphodiester-linked; [ ] holds rarer units or linkages, { } end groups; capitals alone tell only the bases. e = 2'-O-(2-methoxyethyl) (MOE); [5mC] = 5-methylcytosine; d = 2'-deoxy (DNA)

What was measured:
[1] = mouse, in vivo, sc, 50 mg/kg
[2] = mouse, in vivo, sc, 50 mg/kg; remark: listed apart in the source
[3] = mouse, in vivo, sc, 50 mg/kg; remark: listed apart in the source
[4] = tested on: human Factor 11 mRNA; test: Antisense inhibition of human Factor 11 in HepG2 cells, electroporation, 8,000 nM (Example 30); type: cell-based; settings: electroporation, 8,000 nM antisense oligonucleotide
Outline: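 HepG2 cells electroporated with 8,000 nM 5-10-5, 5-8-5 or 6-8-6 MOE gapmers (phosphorothioate, 5-methylcytidine), ~24 h. Factor 11 mRNA quantified by qRT-PCR, normalised to RIBOGREEN total RNA. Reported as percent inhibition versus untreated cells.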

[5] = Viscosity of ISIS antisense oligonucleotides, micro-viscometer at 25 °C (Example 47); type: physicochemical; settings: for Concentration: concentration of the viscosity sample, UV reading at 260 nM at 85° C.; for Viscosity: in water, micro-viscometer at 25° C., at the concentration of the same line
Description: The viscosity of antisense oligonucleotides targeting human Factor 11 was measured with the aim of screening out antisense oligonucleotides which have a viscosity more than 40 cP at a concentration of 165-185 mg/mL.
ISIS oligonucleotides (32-35 mg) were weighed into a glass vial, 120 μL of water was added and the antisense oligonucleotide was dissolved into solution by heating the vial at 50° C. Part of (75 μL) the pre-heated sample was pipetted to a micro-viscometer (Cambridge). The temperature of the micro-viscometter was set to 25° C. and the viscosity of the sample was measured. Another part (20 μL) of the pre-heated sample was pipetted into 10 mL of water for UV reading at 260 nM at 85° C. (Cary UV instrument).

[6] = tested on: human Factor 11 mRNA; test: Dose-dependent inhibition of human Factor 11 in HepG2 cells, electroporation 123.46-10,000 nM (Example 31); type: cell-based; settings: for Percent inhibition of Factor 11 mRNA at 123.47 nM / Percent inhibition of Factor 11 mRNA at 370.37 nM / pIC50: electroporation; for Percent inhibition of Factor 11 mRNA at 123.47 nM / Percent inhibition of Factor 11 mRNA at 370.37 nM / Percent inhibition of Factor 11 mRNA at 1,111.11 nM / Percent inhibition of Factor 11 mRNA at 3,333.33 nM / Percent inhibition of Factor 11 mRNA at 10,000.0 nM: approx. 16 hours, relative to untreated control cells; for Percent inhibition of Factor 11 mRNA at 1,111.11 nM: electroporation, 1,111.11 nM; for Percent inhibition of Factor 11 mRNA at 3,333.33 nM: electroporation, 3,333.33 nM; for Percent inhibition of Factor 11 mRNA at 10,000.0 nM: electroporation, 10,000.0 nM; for pIC50: Factor 11 mRNA expression
Description: Cells were plated at a density of 20,000 cells per well and transfected using electroporation with 123.46 nM, 370.37 nM, 1,111.11 nM, 3,333.33 nM and 10,000 nM concentrations of antisense oligonucleotide, as specified in Table 45. After a treatment period of approximately 16 hours, RNA was isolated from the cells and Factor 11 mRNA levels were measured by quantitative real-time PCR. Human Factor 11 primer probe set RTS 2966 was used to measure mRNA levels. Factor 11 mRNA levels were adjusted according to total RNA content, as measured by RIBOGREEN. Results are presented as percent inhibition of Factor 11, relative to untreated control cells.

“ISIS 416865: MOE gapmer, nucleobases 1275 to 1318 of SEQ ID NO: 1 (Table 8) (antisense TGGCAGCGGACGGCATTGGT; MOE gapmer, wing and gap sizes not given here)” showed an HCT [1] of 50%, a Lymphocyte [1] of 5148 cells/μL and a Neutrophil [1] of 1227 cells/μL. The Platelets [1] was 872 10^3/μL, the RBC [1] was 9 10^6/μL and the WBC [1] was 7 10^3/μL. The hemoglobin [1] was 14 g/dL, the monocytes [1] was 315 cells/μL and the BUN [2] was 20 mg/dL. It also gave an ALT [3] of 383 IU/L, an AST [3] of 262 IU/L and a Bilirubin [3] of 0.27 mg/dL. It also gave a Cholesterol [3] of 95 mg/dL.

With “445498 (antisense eG*eG*eT*eG*e[5mC]*eA*d[5mC]*dA*dG*dT*dT*dT*d[5mC]*dT*eG*eG*e[5mC]*eA*eG*eG) [compound 445498]” the “Percent inhibition of human Factor 11 mRNA levels” value [4] was 83%, the Concentration [5] was 157 mg/mL and the Viscosity [5] was 21 cP. The “Percent inhibition of Factor 11 mRNA at 123.47 nM” value [6] was 3%, the “Percent inhibition of Factor 11 mRNA at 370.37 nM” value [6] was 1% and the “Percent inhibition of Factor 11 mRNA at 1,111.11 nM” value [6] was 27%. The “Percent inhibition of Factor 11 mRNA at 3,333.33 nM” value [6] was 50%, the “Percent inhibition of Factor 11 mRNA at 10,000.0 nM” value [6] was 58% and the pIC50 [6] was 5.32.

In the case of “445504 (antisense eG*eG*e[5mC]*eA*eT*eT*dG*dG*dT*dG*d[5mC]*dA*d[5mC]*dA*eG*eT*eT*eT*e[5mC]*eT) [compound 445504]”, the “Percent inhibition of human Factor 11 mRNA levels” value [4] was 87%, the Concentration [5] was 139 mg/mL and the Viscosity [5] was 20 cP. The “Percent inhibition of Factor 11 mRNA at 123.47 nM” value [6] was 8%, the “Percent inhibition of Factor 11 mRNA at 370.37 nM” value [6] was 20% and the “Percent inhibition of Factor 11 mRNA at 1,111.11 nM” value [6] was 38%. The “Percent inhibition of Factor 11 mRNA at 3,333.33 nM” value [6] was 53%, the “Percent inhibition of Factor 11 mRNA at 10,000.0 nM” value [6] was 68% and the pIC50 [6] was 5.57.

In the case of “445530 (antisense eG*e[5mC]*eA*eT*eT*dG*dG*dT*dG*d[5mC]*dA*d[5mC]*dA*eG*eT*eT*eT*e[5mC]) [compound 445530]”, the “Percent inhibition of human Factor 11 mRNA levels” value [4] was 83%, the Concentration [5] was 177 mg/mL and the Viscosity [5] was 25 cP.

In the case of “ISIS 416857: MOE gapmer, nucleobases 1275 to 1318 of SEQ ID NO: 1 (Table 8) (antisense CGGCATTGGTGCACAGTTTC; MOE gapmer, wing and gap sizes not given here)”, the HCT [1] was 53%, the Lymphocyte [1] was 3697 cells/μL and the Neutrophil [1] was 1334 cells/μL. The Platelets [1] was 603 10^3/μL, the RBC [1] was 10 10^6/μL and the WBC [1] was 6 10^3/μL. It also gave a hemoglobin [1] of 15 g/dL, a monocytes [1] of 215 cells/μL and a BUN [2] of 17 mg/dL. For the same substance, the ALT [3] was 370 IU/L, the AST [3] was 269 IU/L and the Bilirubin [3] was 0.22 mg/dL. It also gave a Cholesterol [3] of 94 mg/dL.
